In patent US7439359B2, “Small molecule compositions for binding to hsp90” (Sloan-Kettering Institute for Cancer Research, priority 2000, dated 2008):
pEC50, pIC50: −log10 of the molar value. Entries after “also recorded” stand apart in the source; their conditions may differ. Read-outs that look alike come from different tables or passages of the source.

What was measured:
Hsp90 beta = target: T1, Hsp90 beta (Homo sapiens, UniProt P08238); experiment: Solid phase competition assay with GM-beads, Hsp90 beta immunoblot; assay type: binding; settings: competition with immobilized GM; unit inferred; read-out: EC50 Hsp90 β
T1 construct: purchased Stressgen SPP-770
Experimental: (§1) A test was also designed which allows identification of compounds which interact differentially with Hsp90-alpha and Hsp90-beta. […] An Hsp90 protein preparation containing both the alpha and the beta form is incubated with the support in the presence or absence of a compound to be evaluated. […] After washing, the material bound to the support is eluted and the eluate is separated on an SDS/PAGE gel and visualized by immunoblotting with anti-Hsp90-alpha and anti-Hsp90-beta to determine the amount of material bound. Alternatively, if quantitative amounts of the Hsp90 protein preparation or known ratios of alpha to beta forms of Hsp90 are used in the first instance, the unbound material can be analyzed by a similar technique.
(§2) Protein Assays. […] Antiproliferative index. […] Tissue Culture IC50 Studies. […] Her2 degradation. Total Protein Assays. […] Binding studies. Solid phase competition assays.

MCF-7 = experiment: Growth inhibition, sulforhodamine B assay; assay type: cell-based, human; settings: unit inferred
Source text: as §2

MDA-MB-468 = experiment: Growth inhibition, sulforhodamine B assay; assay type: cell-based, human; settings: for pIC50: unit inferred
Source text: as §2

BT-474 = experiment: Growth inhibition, sulforhodamine B assay; assay type: cell-based; settings: Homo sapiens, 72 hours, unit inferred
Source text: as §2

Hsp90alpha = Hsp90alpha (Homo sapiens, UniProt P07900); experiment: Solid phase competition assay with GM-beads, Hsp90 alpha immunoblot; assay type: binding; parameters: purchased Stressgen SPP-770; settings: competition with immobilized GM; unit inferred; read-out: EC50 Hsp90 α
Experimental: as §1, §2

Her2 [1] = experiment: Her2 total protein degradation in MCF-7 cells (immunoblot); settings: for concentration at which Her2 is substantially or completely degraded: tested at 10, 50, 100 and 250 μM;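 on all read-outs here: Her2 levels judged by SDS-PAGE western blot of whole-cell lysates probed with anti-Her2 antibody, compared with DMSO vehicle-treated cells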
Experimental: (§4) For assays on protein levels, cells were grown to 60-70% confluence exposed to drugs or DMSO vehicle for the indicated time periods. Lysates were prepared using 50 mM Tris pH=7.4, 2% SDS and 10% glycerol lysis buffer. Protein concentration was determined using the BCA kit (Pierce Chemical Co.), according to the manufacturers instructions. Clarified protein lysates (20-50 mg) were electrophoretically resolved on denaturing SDS-PAGE, transferred to nitrocellulose and probed with the following primary antibodies: anti-Her2 (C-18), -Her3 (C-17), -Raf-1, -cyclin D1, -Rb (C-15) (Santa Cruz), anti-hsp90, -hsp70, -ER (Stressgen), anti-Trap-1 (MSK81), anti-b-actin, -tubulin (Sigma), anti-PI3K (p85) (Upstate Biotechnologies).
After 24 hours, the cells were lysed and the amount of Her2 in the cells was evaluated.
Protein Assays. Cells were grown to 60-70% confluence and exposed to drugs or DMSO vehicle for the indicated time periods. Lysates were prepared using 50 mM Tris pH 7.4, 2% SDS and 10% glycerol lysis buffer. Protein concentration was determined using the BCA kit (Pierce Chemical Co.), according to the manufacturers instructions. Clarified protein lysates (20-50 mg) were electrophoretically resolved on denaturing SDS-PAGE, transferred to nitrocellulose and probed with the following primary antibodies: anti-Her2 (C-18), -Her3 (C-17), -Raf-1, -cyclin D1, -Rb (C-15) (Santa Cruz Biotechnology), anti-hsp90, -hsp70 (Stressgen) anti-Trap-1 (MSK81), anti-b-actin, -tubulin (Sigma), ER, anti-PI3K (p85) (Upstate Biotechnologies). […] Her2 degradation. Total Protein Assays. Cells were grown to 60-70% confluence and exposed to drugs or DMSO vehicle for the indicated time periods. Lysates were prepared using 50 mM Tris pH 7.4, 2% SDS and 10% glycerol lysis buffer. Protein concentration was determined using the BCA kit (Pierce Chemical Co.), according to the manufacturers instructions. Clarified protein lysates (20-50 μg) were electrophoretically resolved on denaturing SDS-PAGE, transferred to nitrocellulose and probed with the anti-Her2 primary antibody (C-18) (Santa Cruz Biotechnology).

Hsp90 = Hsp90 levels in MCF-7 cells (Western blotting); assay type: cell-based, human; settings: MCF-7, 10-250 μM, 24 hours
Experimental: To test the time course of degradation, MCF-7 cells were treated with 100 μM PU3. Aliquots of cells were recovered at 1.5, 3, 6, 12 and 24 hours, and the amount of Her2, Raf-1, Hsp90 and Trap-1 was evaluated.

Hsp70 = Hsp70 levels in MCF-7 cells (Western blotting); assay type: cell-based, human; settings: MCF-7, 10-250 μM, 24 hours
Trap1 = Trap1 levels in MCF-7 cells (Western blotting); assay type: cell-based, human; settings: MCF-7, 10-250 μM, 24 hours
Experimental: as §4

Her2 [2] = experiment: Her2 total protein degradation in SKBr3 cells (immunoblot); assay type: cell-based, human; settings: SKBr3, 24 hours; for concentration at which Her2 is degraded: tested at 10, 50, 100 and 250 μM
Experimental: (§3) PU4 degraded Her2 at concentrations greater than 50 μM and Raf-1 at a concentration of 250 μM.
Cell culture. […] Her2 degradation. Total Protein Assays.

Raf-1 = Raf-1 degradation in SKBr3 cells (immunoblot); assay type: cell-based, human; settings: SKBr3, 24 hours; for Raf-1 degradation: 10-250 μM
Experimental: as §3

estrogen receptor = experiment: Estrogen receptor degradation in MCF-7 cells (immunoblot); assay type: cell-based, human; settings: MCF-7, 24 hours; for estrogen receptor degradation: 10-250 μM
Experimental: as §4
After 24 hours, the cells were lysed and the amount of estrogen receptor in the cells was evaluated.

[3] = system: Her2, Raf1, Her3, estrogen receptor (ER), Rb, p85 (PI3K), tubulin and actin; experiment: Western blot of signaling proteins in SKBr3 and MCF-7 cells (differential degradation); assay type: cell-based, human; settings: cell line not stated
Experimental: Cultures of SKBr3 and MCF-7 cells were treated with varying concentrations (0, 10, 50 100, or 250 μM) of PU3 for 24 hours. The cells were lysed and levels of Her2, Raf1, Her3, estrogen receptor (ER), p85 (PI3K), tubulin and actin were analyzed by western blotting. Reduction in the amount of those signaling proteins which depend on hsp90 for their function (Her2, Raf1, Her3 and ER) was observed. No effect was observed on PI3K, tubulin or actin, proteins which are involved in other signaling pathways.

[4] = Homo sapiens, MDA-MB-468, 72 hours
[5] = Homo sapiens, MCF7, read-out: IC50 Her2/MCF-7
[6] = tested at 10, 50, 100 and 250 μM
[7] = read-out: IC50 Her2/MCF-7, Her2 total protein degradation in MCF-7, unit inferred

T1 sequence (P08238 whole entry): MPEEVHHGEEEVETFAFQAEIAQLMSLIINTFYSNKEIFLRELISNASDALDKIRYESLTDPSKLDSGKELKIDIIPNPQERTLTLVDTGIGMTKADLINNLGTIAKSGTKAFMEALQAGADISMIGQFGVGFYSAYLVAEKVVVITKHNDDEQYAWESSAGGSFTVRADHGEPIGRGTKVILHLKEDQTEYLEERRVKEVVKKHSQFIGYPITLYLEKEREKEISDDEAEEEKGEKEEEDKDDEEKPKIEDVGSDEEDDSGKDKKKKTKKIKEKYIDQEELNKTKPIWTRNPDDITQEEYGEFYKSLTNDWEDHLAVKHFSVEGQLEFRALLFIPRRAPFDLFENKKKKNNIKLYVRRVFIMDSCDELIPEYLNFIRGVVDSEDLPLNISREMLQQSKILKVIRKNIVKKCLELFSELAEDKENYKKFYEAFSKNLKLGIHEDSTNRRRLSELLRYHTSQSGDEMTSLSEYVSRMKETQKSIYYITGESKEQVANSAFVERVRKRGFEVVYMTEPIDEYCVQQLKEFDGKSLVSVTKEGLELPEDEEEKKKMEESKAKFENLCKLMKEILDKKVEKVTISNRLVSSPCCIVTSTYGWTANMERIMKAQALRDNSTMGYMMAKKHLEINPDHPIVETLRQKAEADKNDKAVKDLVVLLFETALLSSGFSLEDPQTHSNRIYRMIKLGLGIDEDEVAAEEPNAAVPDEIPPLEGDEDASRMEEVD

SMILES | pEC50 (Hsp90 beta) | pIC50 (MCF-7; Homo sapiens, MCF7, 72 hours) | pIC50 (MDA-MB-468; [4]) | pIC50 (BT-474) | pEC50 (Hsp90alpha) | pIC50 (Her2 [1]; [5]) | further results
CC#CCCn1c(Cc2cc(OC)c(OC)c(OC)c2)nc2c(N)nc(F)nc21 [PU49F, 2-Fluoro-9-pent-3-ynyl-8-(3,4,5-trimethoxy-benzyl)-9H-purin-6-ylamine] | 4.98 | 4.43 | 4.35 | 4.48 | 4.82 | 4.35 | 
COc1cc(Cc2nc3c(N)nc(F)nc3n2CC2CCCO2)cc(OC)c1OC (stereo not drawn) [PU20F, 2-Fluoro-9-(tetrahydrofuran-2-ylmethyl)-8-(3,4,5-trimethoxy-benzyl)-9H-purin-6-ylamine] | 5.17 | 4.64 | 4.68 | 4.60 | 5.64 | 4.70 | 
C#CCCCn1c(Cc2cc(OC)c(OC)c(OC)c2)nc2c(N)nc(F)nc21 [PU24F, 2-Fluoro-9-pent-4-ynyl-8-(3,4,5-trimethoxy-benzyl)-9H-purin-6-ylamine] | 6.15 | 4.96 | 4.82 | 4.85 | 5.21 | 5.30 | 
CCCCn1c(Cc2cc(OC)c(OC)c(OC)c2Br)nc2c(N)ncnc21 [PU3PhBr, 9-butyl-8-(2-bromo-3,4,5-trimethoxy-benzyl)-9H-purin-6-ylamine] | 4.93 | 4.60 |  | 4.22 | 4.45 | 4.30 | IC50 MDA-468 (MDA-MB-468; 72 hours, unit not given): INSOL
COCCn1c(Cc2cc(OC)c(OC)c(OC)c2)nc2c(N)nc(F)nc21 [PU44F, 2-Fluoro-9-(2-methoxy-ethyl)-8-(3,4,5-trimethoxy-benzyl)-9H-purin-6-ylamine] | 4.86 | 4.19 | 4.46 | 4.22 | 5.10 | 4.19 | 
CCCCn1cnc2c(N)ncnc21 [Ad-But, reference compound] |  |  |  |  |  |  | cellular levels of Hsp90 (Hsp90): no effect; cellular levels of Hsp70 (Hsp70): no effect; Trap1 level / band recognized by anti-Trap-1 antibody (Trap1): no effect
C=CCCn1c(Cc2cc(OC)c(OC)c(OC)c2)nc2c(N)nc(F)nc21 [PU8F, 2-Fluoro-9-but-3-enyl-8-(3,4,5-trimethoxy-benzyl)-9H-purin-6-ylamine] | 5.01 | 4.48 | 4.60 | 4.46 | 5.30 | 4.52 | 
CCCCn1c(Cc2cc(OC)c(OC)c(OC)c2)nc2c(N)nc(F)nc21 [PU3F, 2-Fluoro-9-butyl-8-(3,4,5-trimethoxy-benzyl)-9H-purin-6-ylamine] | 5.46 | 4.62 | 4.52 | 4.54 | 5.22 | 4.60 | 
C#CCCn1c(Cc2cc(OC)c(OC)c(OC)c2)nc2c(N)nc(F)nc21 [PU48F, 2-Fluoro-9-but-3-ynyl-8-(3,4,5-trimethoxy-benzyl)-9H-purin-6-ylamine] | 5.46 | 4.60 | 4.80 | 4.55 | 5.00 | 4.70 | 
COc1cc(Cc2nc3c(N)nc(F)nc3n2CC2CCC2)cc(OC)c1OC [PU16F, 2-Fluoro-9-cyclobutylmethyl-8-(3,4,5-trimethoxy-benzyl)-9H-purin-6-ylamine] | 5.04 | 4.39 | 4.68 | 4.51 | 4.51 | 4.40 | 
CCCCn1c(Cc2ccc(OC)cc2)nc2c(N)ncnc21 [PU1] |  |  |  |  |  |  | Her2 degradation (Her2 [2]; 10-250 μM): little degradation of either protein; Raf-1 degradation (Raf-1): little degradation of either protein; estrogen receptor degradation (estrogen receptor): essentially no degradation; also recorded: substantially no affect on ER; Her2 degradation and lower-molecular weight HER-2 band (Example 3 summary) [3]: lower molecular weight band is also absent; Her2 degradation (Her2 [1]; MCF-7, 24 hours, 10-250 μM): only partial degradation at concentrations in excess of 50 μM
CCCCCn1c(Cc2cc(OC)c(OC)c(OC)c2)nc2c(N)nc(F)nc21 [PU21F, 2-Fluoro-9-pentyl-8-(3,4,5-trimethoxy-benzyl)-9H-purin-6-ylamine] | 5.05 | 4.44 | 4.72 | 4.37 | 4.66 | 4.46 | 
CC[C@H](C)Cn1c(Cc2cc(OC)c(OC)c(OC)c2)nc2c(N)nc(F)nc21 [PU26F, 2-Fluoro-9-[(S)-2-methyl-butyl]-8-(3,4,5-trimethoxy-benzyl)-9H-purin-6-ylamine] | 4.82 | 4.36 | 4.55 | 4.35 | 4.66 | 4.40 | 
CCCCn1c(Cc2ccc(OC)c(OC)c2)nc2c(N)ncnc21 [PU2] |  |  |  |  |  |  | concentration at which Her2 is degraded (Her2 [2]): 250 µM; Raf-1 degradation (Raf-1): degraded Her2 but not Raf-1; estrogen receptor degradation (estrogen receptor): less effective at degrading ER; concentration at which estrogen receptor is completely degraded (estrogen receptor; [6]): 250 µM; Her2 degradation and lower-molecular weight HER-2 band (Example 3 summary) [3]: substantial degradation of Her2 without accumulation of the lower molecular weight band; Raf / Her3 degradation (Example 3 summary) [3]: less effective for degradation of Raf kinase; Rb band (Example 3 summary) [3]: induces a lower molecular weight Rb band; concentration at which Her2 is substantially or completely degraded (Her2 [1]; MCF-7, 24 hours): 250 µM
COc1cc(Cc2nc3c(N)nc(F)nc3n2CCOC(C)C)c(Cl)c(OC)c1OC [PU29FCl, 2-Fluoro-9-(2-isopropoxy-ethyl)-8-(2-chloro-3,4,5-trimethoxy-benzyl)-9H-purin-6-ylamine] | 6.28 | 5.27 | 5.35 | 5.35 | 6.19 | 5.52 | 
CCCCn1c(Cc2cc(OC)c(OC)c(OC)c2Cl)nc2c(N)ncnc21 [PU3PhCl, 9-butyl-8-(2-chloro-3,4,5-trimethoxy-benzyl)-9H-purin-6-ylamine] | 5.34 | 4.72 | 4.44 | 4.52 | 4.73 | 4.60 | 
CCCn1c(Cc2cc(OC)c(OC)c(OC)c2)nc2c(N)nc(F)nc21 [PU43F, 2-Fluoro-9-propyl-8-(3,4,5-trimethoxy-benzyl)-9H-purin-6-ylamine] | 5.28 | 4.60 | 4.60 | 4.52 | 5.39 | 4.52 | 
C=CCCCn1c(Cc2cc(OC)c(OC)c(OC)c2)nc2c(N)nc(F)nc21 [PU47F, 2-Fluoro-9-pent-4-enyl-8-(3,4,5-trimethoxy-benzyl)-9H-purin-6-ylamine] | 5.00 | 4.35 | 4.48 | 4.34 | 4.97 | 4.30 | 
COc1cc(Cc2nc3c(N)ncnc3n2CC2CC2)cc(OC)c1OC [PU15] | 4.79 |  |  |  | 4.92 |  | pIC50 (MCF-7; 72 hours): 4.12; pIC50 (MDA-MB-468; 72 hours): 4.15; pIC50 (Her2 [1]; [7]): 4.15
COc1cc(Cc2nc3c(N)ncnc3n2CC2CCCCC2)cc(OC)c1OC [PU4] | < 4.00 |  |  |  | 3.92 |  | pIC50 (MCF-7; 72 hours): 4.15; concentration at which Her2 is degraded (Her2 [2]): greater than 50 μM; concentration at which Raf-1 is degraded (Raf-1; [6]): 250 µM; Her2 degradation and lower-molecular weight HER-2 band (Example 3 summary) [3]: greater ability to degrade Her2 than ER or Raf; concentration at which Her2 is substantially or completely degraded (Her2 [1]; MCF-7, 24 hours): greater than 100 μM; pIC50 (Her2 [1]; [7]): 4.30
COCCn1c(Cc2cc(OC)c(OC)c(OC)c2)nc2c(N)ncnc21 [PU44] | 4.91 |  |  |  | 5.39 |  | pIC50 (MCF-7; 72 hours): 4.19; pIC50 (MDA-MB-468; 72 hours): 4.10; pIC50 (Her2 [1]; [7]): 4.07
CCC(CC)Cn1c(Cc2cc(OC)c(OC)c(OC)c2)nc2c(N)ncnc21 [PU14] | 4.28 |  |  |  | 4.21 |  | pIC50 (MCF-7; 72 hours): 3.80; pIC50 (MDA-MB-468; 72 hours): 3.89; pIC50 (Her2 [1]; [7]): < 4.00
